Data set [1] deals with EMS lesions. The experiment in a line: In vivo T1-weighted MRI of EMS lesions. On the set-up: species or system Wistar female rats. The settings on record: EMS rats, 4.5 mg Gd per kg i.v., 30 min and 5 h post-injection, 3.0 T. The protocol:
Prior to the imaging procedure, the rats were anesthetized through intraperitoneal injection of 1% sodium pentobarbital at a dosage of 45 mg kg^−1. Following anesthesia, the rats were positioned inside a 3.0 T MRI scanner sourced from the First Hospital of Sun Yat‐sen University.
Prior to drug administration, the rats underwent T 1‐weighted imaging using the fast spin‐echo sequence with the following parameters: TR = 400 ms; TE = 12 ms; FOV = 80 mm × 80 mm; matrix size = 672 × 672; voxel size = 0.24 mm × 0.24 mm; slice thickness = 1 mm; flip angle = 150°; and NSA = 5.
T 1‐weighted imaging using the fast spin‐echo sequence was repeated at 30 min and 5 h post‐injection, respectively, with adjusted parameters: TR = 425 ms; TE = 12 ms; FOV = 80 mm × 80 mm; matrix size = 384 × 384; voxel size = 0.42 mm × 0.42 mm; slice thickness = 1 mm; flip angle = 150°; and NSA = 7.

Another data set relates to endometriotic lesions. Briefly: In vivo anti-EMS efficacy, autologous transplantation model. Further details: species or system Wistar female rats. As to conditions: EMS rats, i.v. every 3 days, six times, 808 nm 1.0 W cm^−2 10 min 1 h post-administration; n = 4. The protocol:
Mice were injected with different formulations via the tail vein every 3 days until euthanasia, with an ICG dose of 3 mg kg^−1. For groups receiving NIR laser irradiation, the procedure was conducted 1 h post‐administration with a power of 1.0 W cm^− ^2 for 10 min. Mouse body weights were recorded every 3 days, and xenograft growth was monitored using a vernier caliper. EMS rats (n = 4) underwent the same treatment strategy after 28 days of autotransplantation, with body weight changes monitored every 3 days. After 18 days of treatment, rats were euthanized for autograft size measurement. Nude mice were euthanized after 18 days for graft extraction, followed by H&E staining and TUNEL assay. Briefly, sections were deparaffinized, hydrated, stained with H&E, and visualized under an optical microscope.

A short description of data set [2]: ROS generation in solution with DPBF indicator under 808 nm laser. The format is physicochemical. The settings on record: C ICG = 10 µg mL^−1 in methanol, DPBF absorbance at 410 nm, 808 nm laser 1.0 W cm^−2, within 10 min. As to the method:
The generation of ROS was quantified using DPBF as a probe. […] The gradual decrease in the UV absorption of DPBF was monitored using a UV–vis spectrophotometer, and the correlation between the UV absorbance values and the laser exposure time was recorded.

In data set [3] the test system is Ishikawa cells. Briefly: In vitro photothermal/photodynamic therapy, CCK-8 viability after laser. The format is cell-based. As to conditions: CCK-8, 2 h incubation, 808 nm, 1.0 W cm^−2, 5 min, concentration of the quoted value not stated (range 2.5 to 50 µg mL^−1 ICG), mean ± SD, n = 4. The protocol:
(§1) Ishikawa cells and EESCs were seeded in a 96‐well plate at a density of 1 × 10^4 cells per well and allowed to adhere overnight. […] Following this incubation, the cells were irradiated with an 808 nm laser (1.0 W cm^−2, 5 min). The viability of cells was measured using the CCK‐8 assay.

The test system of data set [4] is EESCs. The experiment in a line: Intracellular ROS generation, DCFH-DA, flow cytometry. It counts as cell-based, human. As to conditions: C ICG = 20 µg mL^−1, 4 h, + laser (808 nm, 1.0 W cm^−2, 5 min). The protocol: (§2) DCFH‐DA was utilized to evaluate the intracellular ROS production induced by molecular probes under laser irradiation. Specifically, the cells (1 × 10^4 per well) were seeded onto confocal dishes and incubated overnight at 37 °C. […] Following this, the cells were carefully rinsed three times with fresh PBS. Subsequently, the cells were irradiated with an 808 nm laser (1.0 W cm^− ^2, 5 min). Intracellular ROS levels were then visualized and analyzed using a CLSM.
(§3) Additionally, a quantitative assessment of intracellular ROS production was performed using flow cytometry under the same conditions as the above experimental conditions. […] The cells were then trypsinized and harvested. After exposure to an 808 nm laser (1.0 W cm^− ^2, 5 min), the collected cells were analyzed on an Attune NxT flow cytometer (Invitrogen, USA). The resulting data was analyzed with NovoExpress 1.4.0 software (Agilent, USA).
(In general: Flow cytometry measures light scatter and fluorescence of single cells or particles in a stream.)

A short description of data set [5]: T1 relaxivity (r1) of probe solutions by MRI. The format is physicochemical. The settings on record: in PBS, 3.0 T MRI scanner, room temperature; slope of 1/T1 versus Gd concentration; n = 3 regions of interest. As to the method:
An inversion recovery spin echo sequence was executed with the parameters: repetition time (TR) = 5.27 ms, echo time (TE) = 2.29 ms, field of view (FOV) = 160 mm × 160 mm, acquisition matrix = 336 × 336, acquisition voxel = 0.48 mm × 0.48 mm × 2 mm, slice thickness = 2 mm, reconstruction matrix = 672 × 672, reconstruction voxel = 0.24 mm × 0.24 mm × 2 mm, number of flip angles = 4 (3°, 6°, 9°, 13°), and NSA = 1. Regions of interest (ROI, average size 10 mm^2) were analyzed to acquire the T1 relaxation times. The r 1 was then calculated based on the slope of the linear plot between 1/T1 and Gd concentration, determined through linear least‐squares regression analysis.

The test system of data set [6] is Ishikawa cells. The experiment in a line: Intracellular ROS generation, DCFH-DA, flow cytometry. It counts as cell-based. The settings on record: C ICG = 20 µg mL^−1, 4 h, + laser (808 nm, 1.0 W cm^−2, 5 min). The protocol:
as §2, §3

Data set [7] in a line: Photothermal heating and photothermal conversion efficiency of probe solutions. The settings on record: for temperature elevation of solution: 808 nm laser, 1.0 W cm^−2, 5 min. It counts as physicochemical. The protocol: Subsequently, a digital thermographic camera (Fluke Ti27, IR Fusion Technology, USA) was used to capture infrared thermal images and measure temperatures. The relationship between temperature values and laser irradiation duration was recorded using AnalyzIR software (4.0.0). […] The PCE (η) was subsequently calculated based on these measurements.^[ [41] ^]

For data set [8], the system named is EESCs. The experiment in a line: In vitro photothermal/photodynamic therapy, CCK-8 viability after laser. The format is cell-based, human. As to conditions: CCK-8, 2 h incubation, 808 nm, 1.0 W cm^−2, 5 min, concentration of the quoted value not stated (range 2.5 to 50 µg mL^−1 ICG), mean ± SD, n = 4. As to the method:
as §1

Data set [9] concerns EMS lesions. The experiment in a line: In vivo photoacoustic imaging of EMS lesions. On the set-up: species or system BALB/c nude mice. As to conditions: EMS nude mice, ICG 4 µg g^−1 i.v., imaging to 48 h; n = 3. As to the method: PAI was conducted using a TomoWave LOIS‐3D series photoacoustic imaging system before injection and at 30 min, 5 h, 24 h, and 48 h post‐injection. Photoacoustic image processing and analysis were conducted using LOIS View 3D software and ImageJ 1.53e. ROIs were manually delineated on axial photoacoustic images to quantify lesion signal intensity (SI).

The text below walks through data of paper PMC12631912, “A Multifunctional Molecular Probe for Multimodal Imaging‐Guided Potent Photothermal/Photodynamic Therapy of Endometriosis” (Advanced Science, 2025).

On to ICG‐lys‐DTPA@Gd [ILD], for which, in the data set on EMS lesions [1], the “T 1-weighted signal intensity at the lesion site” value is on record as “no significant increase”. Also, the “inhibition of lesion growth, probe + laser” value in the data set on endometriotic lesions is given as “superior efficacy in inhibiting lesion growth compared to the other groups”. Further, the “reduction in DPBF absorbance (ROS generation)” value in data set [2] is on record as approximately 56%. Besides, the “cell viability after laser irradiation” value is 48.41 ± 1.74% with Ishikawa cells [3] and 55.35 ± 1.1% in the data set on EESCs [8]. Besides, the “intracellular ROS, normalized fluorescence intensity (DCFH-DA)” value was 93.85% with EESCs [4] and 88.54% in the data set with Ishikawa cells [6]. For the same substance, the “T 1 relaxivities (r 1)” value in [5] worked out at 5.37 mM⁻¹ s⁻¹. In [7] (C ICG = 50 µg mL^−1 in PBS), the “temperature elevation of solution” value was “≈ 20 °C”. Also, in the data set with EMS lesions [9], the “PA signal in lesions over time” value is reported as “rapid signal attenuation”.
As for “c(RGDyK)‐ICG‐lys‐DTPA@Gd (head to tail) [cRGD‐ILD, targeting theranostic probe integrating cRGD peptide, ICG fragment and DTPA@Gd complex]”, in the data set on EMS lesions [1], the “T 1-weighted signal intensity at the lesion site” value is listed as “notable enhancement”. In addition, the “inhibition of lesion growth, probe + laser” value with endometriotic lesions is “superior efficacy in inhibiting lesion growth compared to the other groups”. The “reduction in DPBF absorbance (ROS generation)” value in data set [2] is given as “≈ 58%”. The “cell viability after laser irradiation” value worked out at 23.8 ± 1.36% in the data set on Ishikawa cells [3] and 30.27 ± 2.02% in the data set on EESCs [8]. For the same substance, the “intracellular ROS, normalized fluorescence intensity (DCFH-DA)” value in the data set on EESCs [4] is 96.99%; in the data set on Ishikawa cells [6], 94.2%. The “T 1 relaxivities (r 1)” value in data set [5] amounted to 4.85 mM⁻¹ s⁻¹. For the same substance, the maximum temperature increase result in data set [7] (50 µg/mL, 1 W/cm², laser on/off, 5 photothermal cycles (Figure S12a)) is “≈ 45 °C”. In data set [7] (C ICG = 50 µg mL^−1 in PBS), the “temperature elevation of solution” value was “≈ 20 °C”. Also, the “Photothermal conversion efficiency (PCE)” value in [7] (C ICG = 50 µg mL^−1 in PBS, 808 nm, 1 W/cm², calculated from heating and cooling curves) is 29.81%. In the data set on EMS lesions [9], the “PA signal in lesions over time” value is “sustained elevated PA signal intensities at 5 and 24 h”.
